Consider one compound from patent US12076411B2, “Anti-HER2 antibody-maytansine conjugates and methods of use thereof” (priority 2014, dated 2024).

In assay [1] the test system is NCI-N87 cells. The experiment in a line: In vitro cytotoxicity, 6 day assay, Cell Titer-Glo (Example 2). In kind it is cell-based. The following applies: Homo sapiens, 144 h; NCI-N87, 6 day assay; antibody concentrations except for the free drug.
Method: (§1) NCI-N87 cells, which overexpress HER2, were used as targets for in vitro cytotoxicity in a 6 day assay.
The HER2-positive breast carcinoma cell line, NCI-N87, was obtained from ATCC and maintained in RPMI-1640 medium (Cellgro) supplemented with 10% fetal bovine serum (Invitrogen) and Glutamax (Invitrogen). 24 h prior to plating, cells were passaged to ensure log-phase growth. On the day of plating, 5000 cells/well were seeded onto 96-well plates in 90 μL normal growth medium supplemented with 10 IU penicillin and 10 μg/mL streptomycin (Cellgro). Cells were treated at various concentrations with 10 μL of diluted analytes, and the plates were incubated at 37° C. in an atmosphere of 5% CO2. After 6 d, 100 μL/well of Cell Titer-Glo reagent (Promega) was added, and luminescence was measured using a Molecular Devices SpectraMax M5 plate reader. GraphPad Prism software was used for data analysis, including IC50 calculations.
Assay [2] deals with NCI-N87 cells. The assay can be described thus: In vitro cytotoxicity, 6 d, Cell Titer-Glo (Example 5). In kind it is cell-based. The note with it: Homo sapiens, 144 h; NCI-N87, 6 d. On the technique in general: Cellular ATP, detected with luciferase, serves as a proxy for viable cell number.
Method: The HER2-positive gastric carcinoma cell line, NCI-N87, was obtained from ATCC and maintained in RPMI-1640 medium (Cellgro) supplemented with 10% fetal bovine serum (Invitrogen) and Glutamax (Invitrogen). 24 h prior to plating, cells were passaged to ensure log-phase growth. On the day of plating, 5000 cells/well were seeded onto 96-well plates in 90 μL normal growth medium supplemented with 10 IU penicillin and 10 μg/mL streptomycin (Cellgro). […] After 6 d, 100 μL/well of Cell Titer-Glo reagent (Promega) was added, and luminescence was measured using a Molecular Devices SpectraMax M5 plate reader. GraphPad Prism software was used for data analysis.
The subject of assay [3] is NCI-N87 cells. The experiment in a line: In vitro cytotoxicity, 6 day assay, Cell Titer-Glo (Example 1). The following applies: Homo sapiens, NCI-N87, 144 h.
Method: as §1
24 h prior to plating, cells were passaged to ensure log-phase growth. On the day of plating, 5000 cells/well were seeded onto 96-well plates in 90 μL normal growth medium supplemented with 10 IU penicillin and 10 μg/mL streptomycin (Cellgro). Cells were treated at various concentrations with 10 μL of diluted analytes, and the plates were incubated at 37° C. in an atmosphere of 5% CO2. After 6 d, 100 μL/well of Cell Titer-Glo reagent (Promega, Madison, WI) was added, and luminescence was measured using a Molecular Devices SpectraMax M5 plate reader. GraphPad Prism software was used for data analysis, including IC50 calculations.

As a reminder, the IC50 is the concentration that gives 50% inhibition. Read a high IC50 as lower potency.

On to `COc1cc2cc(c1Cl)N(C)C(=O)C[C@H](OC(=O)[C@H](C)N(C)C(C)=O)[C@]1(C)O[C@H]1[C@H](C)[C@@H]1C[C@@](O)(NC(=O)O1)[C@H](OC)/C=C/C=C(\C)C2` [free maytansine, maytansine], for which the IC50 was 0.25 nM in assay [1], 0.35 nM in assay [2] and 0.214 nM in assay [3].
